Source: patent US11926634B2, “Processes for the preparation of selective estrogen receptor degraders” (Eli Lilly and Company, priority 2022, dated 2024)

These molecules were tested against T1, hERα (Homo sapiens, UniProt P03372) (assay: ERα degradation high content imaging assay in MCF7 cells). Conditions: MCF7 ESR1 Wild Type cells; output % estrogen receptor positive cells; read-out: Relative IC50 (μM), hERα Degradation Cell Assay in MCF7 Cells.
T1 construct: ERα degradation High Content Imaging assays in MCF7 ESR1 Wild Type cells; endogenous in cells; host or cells: MCF7 (ESR1 wild type)
T1 sequence (P03372 1-595): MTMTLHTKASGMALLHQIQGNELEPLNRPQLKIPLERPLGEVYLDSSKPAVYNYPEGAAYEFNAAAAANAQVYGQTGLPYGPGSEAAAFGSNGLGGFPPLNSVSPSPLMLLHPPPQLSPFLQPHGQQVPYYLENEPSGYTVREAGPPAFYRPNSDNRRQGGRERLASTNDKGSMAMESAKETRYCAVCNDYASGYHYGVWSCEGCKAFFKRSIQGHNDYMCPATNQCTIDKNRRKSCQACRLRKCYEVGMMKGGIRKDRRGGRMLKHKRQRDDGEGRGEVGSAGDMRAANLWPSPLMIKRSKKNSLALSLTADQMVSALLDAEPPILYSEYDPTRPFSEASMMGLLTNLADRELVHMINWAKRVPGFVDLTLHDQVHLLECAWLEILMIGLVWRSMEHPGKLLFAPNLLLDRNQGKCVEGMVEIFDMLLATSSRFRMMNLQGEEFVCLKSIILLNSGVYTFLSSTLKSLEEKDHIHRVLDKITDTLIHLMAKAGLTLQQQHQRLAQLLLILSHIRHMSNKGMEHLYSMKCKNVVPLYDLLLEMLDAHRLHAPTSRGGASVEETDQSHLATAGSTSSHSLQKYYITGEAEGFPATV
Type: cell-based
Protocol: Cells were fixed by adding 14% paraformaldehyde (10 μL) for 30 min at RT. The cells were washed once with PBS (20 μL) and incubated with PBS (20 μL per well) containing 0.5% (v/v) TWEEN® 20 for 1 h. Cells were washed with PBS containing 0.05% TWEEN® 20 (2×) and blocked with 3% BSA in PBS containing 0.05% TWEEN® and 0.1% TRITON™ X-100 (20 μL/well) for 1 h at RT. A 1:500 dilution of Primary antibody (20 μL) (ERα (Clone SP1) monoclonal rabbit antibody #RM-9101-S, Thermo Scientific) in 1% BSA in PBS containing 0.05% TWEEN® 20 was added, the plates were sealed and incubated overnight at 4° C. The following day the cells were washed with PBS containing 0.05% TWEEN® 20 (2×) and incubated with secondary antibody ([…]) (1:1000 dilution, Goat anti-rabbit IgM ALEXA FLUOR™ 488) in PBS 1% BSA for 105 min at RT. After incubation plates were washed with PBS (2×20 μL), and PBS (20 μL) containing RNase (Sigma) (50 μg/mL) and 1:1000 propidium iodide dilution was added per well. Plates were sealed and incubated 1 h at RT (preserved from light). The plates were scanned with ACUMEN EXPLORER™ [Laser-scanning fluorescence microplate cytometer manufactured by TTP LABTECH LTD] to measure ERa. Image analysis was based on cellular fluorescent signals for identifying positive cells. Estrogen receptor positive cells were identified by mean intensity. Total intensity at 575-640 nm from propidium iodide/DNA was used to identify individual cells. Assay output was % estrogen receptor positive cells. The IC50 was determine by curve fitting to a four-parameter logistic for each output using GENE DATA™. Raw data (FLU) were plotted as nonlinear regression through […]© tool. Data was analyzed using a 4-parameter nonlinear logistic equation (four-parameter logistic concentration-response curve): Y=bot+[(top-bot)/1+(x/IC50) slope] where Y=% inhibition, x=concentration yielding y % inhibition, Bottom=minimum value of y attained by curve, Top=maximum value of y attained by curve and Slope=steepness of curve at IC50. % Inh=[(median Max−x/median Max−median Min)]×100.

DC50 [µM]	IC50 [µM]	Structure (SMILES)
> 2	–	CCOC(COc1ccc(C(=O)c2c(-c3ccc(C(F)(F)F)cc3F)cnc3cc(O)ccc23)cc1)OCC
0.126 ± 0.0442	–	O=C(c1ccc(OCCN2CC(CF)C2)cc1)c1c(Cl)cnc2cc(O)ccc12
–	0.00216	O=C(c1ccc(OCCN2CC(CF)C2)cc1)c1c(-c2ccc(C(F)(F)F)cc2F)cnc2cc(O)ccc12
> 2	–	CCOC(COc1ccc(C(O)c2c(-c3ccc(C(F)(F)F)cc3F)cnc3cc(O)ccc23)cc1)OCC (stereo not shown)
0.278 ± 0.126	–	Oc1ccc2c(C(O)c3ccc(OCCN4CC(CF)C4)cc3)c(-c3ccc(C(F)(F)F)cc3F)cnc2c1 (stereo not shown)
> 2	–	CCOC(COc1ccc(C2Oc3cc(C(F)(F)F)ccc3-c3cnc4cc(O)ccc4c32)cc1)OCC (stereo not shown)
> 2	–	O=CCOc1ccc(C2Oc3cc(C(F)(F)F)ccc3-c3cnc4cc(O)ccc4c32)cc1 (stereo not shown)
